Here are results for four compounds from patent publication US20070259860A1, “MGluR5 modulators V” (AstraZeneca AB, priority 2006, published 2007).

Data set [1] deals with hERG-encoded potassium channel (Homo sapiens, UniProt Q12809). In words: hERG IonWorks. The format is cell-based. (In general: hERG is a cardiac potassium channel; its block is linked to QT prolongation.)
For another data set, the target named is T1, human mGluR5d (Homo sapiens, UniProt P41594).
T1 construct: expressed in transfected cells
In words: FLIPR assay, mGluR5 antagonism in cells expressing human mGluR5d. Format: cell-based. The conditions noted are these: intracellular calcium mobilization, read-out: FLIPR hmGluR5d. An excerpt:
The properties of the compounds of the invention can be analyzed using standard assays for pharmacological activity. Examples of glutamate receptor assays are well known in the art as described in for example Aramori et al., Neuron 8:757 (1992), Tanabe et al., Neuron 8:169 (1992), Miller et al., J. Neuroscience 15: 6103 (1995), Balazs, et al., J. Neurochemistry 69:151 (1997). The methodology described in these publications is incorporated herein by reference. Conveniently, the compounds of the invention can be studied by means of an assay (FLIPR) that measures the mobilization of intracellular calcium, [Ca^2+]i in cells expressing mGluR5 or another assay (IP3) that measures inositol phosphate turnover.
Cells expressing human mGluR5d as described in WO97/05252 are seeded at a density of 100,000 cells per well on collagen coated clear bottom 96-well plates with black sides and experiments are done 24 h following seeding. All assays are done in a buffer containing 127 mM NaCl, 5 mM KCl, 2 mM MgCl2, 0.7 mM NaH2PO4, 2 mM CaCl2, 0.422 mg/ml NaHCO3, 2.4 mg/ml HEPES, 1.8 mg/ml glucose and 1 mg/ml BSA Fraction IV (pH 7.4). Cell cultures in the 96-well plates are loaded for 60 minutes in the above mentioned buffer containing 4 μM of the acetoxymethyl ester form of the fluorescent calcium indicator fluo-3 (Molecular Probes, Eugene, Oreg.) in 0.01% pluronic acid (a proprietary, non-ionic surfactant polyol—CAS Number 9003-11-6). Following the loading period the fluo-3 buffer is removed and replaced with fresh assay buffer. FLIPR experiments are done using a laser setting of 0.800 W and a 0.4 second CCD camera shutter speed with excitation and emission wavelengths of 488 nm and 562 nm, respectively. Each experiment is initiated with 160 μl of buffer present in each well of the cell plate. A 40 μl addition from the antagonist plate was followed by a 50 μL addition from the agonist plate. A 90 second interval separates the antagonist and agonist additions. The fluorescence signal is sampled 50 times at 1 second intervals followed by 3 samples at 5 second intervals immediately after each of the two additions. Responses are measured as the difference between the peak height of the response to agonist, less the background fluorescence within the sample period. IC50 determinations are made using a linear least squares fitting program.
In general terms: Calcium assays in cells follow changes in intracellular calcium, usually with a dye or a luminescent sensor.

Data set [2] is described as follows: Determination of brain to plasma ratio in rat. Format: in vivo. Conditions: brain and plasma, female Sprague Dawley rats, read-out: Brain/Plasma Ratio of compound in Rat. The protocol:
Brain to plasma ratios are estimated in female Sprague Dawley rats. The compound is dissolved in water or another appropriate vehicle. For determination of brain to plasma ratio the compound is administrated as a subcutaneous, or an intravenous bolus injection, or an intravenous infusion, or an oral administration. At a predetermined time point after the administration a blood sample is taken with cardiac puncture. The rat is terminated by cutting the heart open, and the brain is immediately retained. The blood samples are collected in heparinized tubes and centrifuged within 30 minutes, in order to separate the plasma from the blood cells. The plasma is transferred to 96-well plates and stored at −20° C. until analysis. The brains are divided in half, and each half is placed in a pre-tarred tube and stored at −20° C. until analysis. Prior to the analysis, the brain samples are thawed and 3 ml/g brain tissue of distilled water is added to the tubes. The brain samples are sonicated in an ice bath until the samples are homogenized. Both brain and plasma samples are precipitated with acetonitrile. After centrifugation, the supernatant is diluted with 0.2% formic acid. Analysis is performed on a short reversed-phase HPLC column with rapid gradient elution and MSMS detection using a triple quadrupole instrument with electrospray ionisation and Selected Reaction Monitoring (SRM) acquisition. Liquid-liquid extraction may be used as an alternative sample clean-up. The samples are extracted, by shaking, to an organic solvent after addition of a suitable buffer. An aliquot of the organic layer is transferred to a new vial and evaporated to dryness under a stream of nitrogen. After reconstitution of the residuals the samples are ready for injection onto the HPLC column.

A short description of data set [3]: In vitro stability in human liver microsomes (CLint). The conditions noted are these: pH 7.4, 0.5 mg/mL protein, 1.0 μmol/L compound, NADPH. Format: in vitro ADME. The protocol: Rat liver microsomes are prepared from Sprague-Dawley rats liver samples. Human liver microsomes are either prepared from human liver samples or acquired from BD Gentest. The compounds are incubated at 37° C. at a total microsome protein concentration of 0.5 mg/mL in a 0.1 mol/L potassium phosphate buffer at pH 7.4, in the presence of the cofactor, NADPH (1.0 mmol/L). The initial concentration of compound is 1.0 μmol/L. Samples are taken for analysis at 5 time points, 0, 7, 15, 20 and 30 minutes after the start of the incubation. The enzymatic activity in the collected sample is immediately stopped by adding a 3.5 times volume of acetonitrile. The concentration of compound remaining in each of the collected samples is determined by means of LC-MS. The elimination rate constant (k) of the mGluR5 inhibitor is calculated as the slope of the plot of In[mGluR5 inhibitor] against incubation time (minutes). The elimination rate constant is then used to calculate the half-life (T ½) of the mGluR5 inhibitor, which is subsequently used to calculate the intrinsic clearance (CLint) of the mGluR5 inhibitor in liver microsomes as:
CLint.=(ln2×incubation volume)/(T½×protein concentration)=μl/min/mg
For orientation: Microsomes from liver hold many membrane-bound enzymes, among them those of drug oxidation.

Each structure is given as a SMILES string.

Sequence of hERG-encoded potassium channel (Q12809 whole entry): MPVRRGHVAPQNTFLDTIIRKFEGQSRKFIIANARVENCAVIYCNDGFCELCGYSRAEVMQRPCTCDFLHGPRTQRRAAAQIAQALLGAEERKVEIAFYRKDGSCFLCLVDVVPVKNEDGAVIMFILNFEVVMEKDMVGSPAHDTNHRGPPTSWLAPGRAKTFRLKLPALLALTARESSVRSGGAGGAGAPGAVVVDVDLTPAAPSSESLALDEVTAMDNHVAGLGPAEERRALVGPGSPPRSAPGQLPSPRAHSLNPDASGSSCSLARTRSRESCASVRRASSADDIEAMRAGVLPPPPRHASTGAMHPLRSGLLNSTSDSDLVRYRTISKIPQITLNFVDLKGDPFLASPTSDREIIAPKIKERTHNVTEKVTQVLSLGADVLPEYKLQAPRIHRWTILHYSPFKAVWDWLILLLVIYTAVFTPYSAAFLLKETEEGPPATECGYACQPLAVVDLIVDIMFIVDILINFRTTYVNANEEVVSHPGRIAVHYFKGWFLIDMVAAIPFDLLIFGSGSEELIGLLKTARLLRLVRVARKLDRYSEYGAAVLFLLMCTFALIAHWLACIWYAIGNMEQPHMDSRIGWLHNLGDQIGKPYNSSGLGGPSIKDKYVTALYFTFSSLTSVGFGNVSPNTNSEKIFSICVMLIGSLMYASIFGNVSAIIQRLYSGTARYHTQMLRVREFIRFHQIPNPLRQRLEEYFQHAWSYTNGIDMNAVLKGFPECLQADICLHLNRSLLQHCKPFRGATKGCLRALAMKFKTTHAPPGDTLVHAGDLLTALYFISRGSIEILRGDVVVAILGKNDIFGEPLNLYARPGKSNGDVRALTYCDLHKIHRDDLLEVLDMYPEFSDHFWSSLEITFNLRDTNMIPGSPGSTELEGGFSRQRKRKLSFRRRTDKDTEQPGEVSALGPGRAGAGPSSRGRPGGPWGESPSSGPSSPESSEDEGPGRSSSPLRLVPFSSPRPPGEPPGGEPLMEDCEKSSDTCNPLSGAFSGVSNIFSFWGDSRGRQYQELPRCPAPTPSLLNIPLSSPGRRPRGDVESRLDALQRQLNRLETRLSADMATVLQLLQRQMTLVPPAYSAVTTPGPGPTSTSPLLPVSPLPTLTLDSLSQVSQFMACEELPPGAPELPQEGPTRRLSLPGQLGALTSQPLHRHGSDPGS
T1 sequence (P41594 21-942 isoform P41594-3 limits assumed): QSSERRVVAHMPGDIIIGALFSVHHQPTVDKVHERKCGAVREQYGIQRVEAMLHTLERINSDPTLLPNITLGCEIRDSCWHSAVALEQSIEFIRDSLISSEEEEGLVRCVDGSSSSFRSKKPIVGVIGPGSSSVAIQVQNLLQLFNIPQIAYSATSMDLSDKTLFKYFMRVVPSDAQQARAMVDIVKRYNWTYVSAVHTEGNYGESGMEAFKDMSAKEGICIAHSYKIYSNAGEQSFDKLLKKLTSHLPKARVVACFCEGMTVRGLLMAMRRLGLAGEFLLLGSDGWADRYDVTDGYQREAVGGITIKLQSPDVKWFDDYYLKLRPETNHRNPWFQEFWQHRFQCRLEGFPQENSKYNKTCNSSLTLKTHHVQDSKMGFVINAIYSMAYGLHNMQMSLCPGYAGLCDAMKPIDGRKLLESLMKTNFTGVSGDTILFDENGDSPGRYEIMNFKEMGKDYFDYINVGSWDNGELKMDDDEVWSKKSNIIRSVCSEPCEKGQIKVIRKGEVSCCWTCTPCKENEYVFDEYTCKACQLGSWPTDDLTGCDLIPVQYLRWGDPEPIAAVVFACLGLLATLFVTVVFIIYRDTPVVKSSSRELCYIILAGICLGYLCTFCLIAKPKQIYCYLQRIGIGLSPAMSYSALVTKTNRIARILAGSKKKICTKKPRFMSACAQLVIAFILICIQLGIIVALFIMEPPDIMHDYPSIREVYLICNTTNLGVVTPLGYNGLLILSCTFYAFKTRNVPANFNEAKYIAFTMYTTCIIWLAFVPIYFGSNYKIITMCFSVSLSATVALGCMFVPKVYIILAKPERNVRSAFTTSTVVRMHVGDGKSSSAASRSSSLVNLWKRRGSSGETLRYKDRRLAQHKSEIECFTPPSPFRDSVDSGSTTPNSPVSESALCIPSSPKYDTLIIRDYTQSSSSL

What is called microsomal CLint is the rate of metabolic loss divided by the concentration. On to `Cc1cccc(-n2nnc(CN3CCCn4c(-c5cccnc5)nnc43)n2)c1` [Example 35.1, 3-Pyridin-3-yl-8-(2-m-tolyl-2H-tetrazol-5-ylmethyl)-5,6,7,8-tetrahydro-[1,2,4]triazolo[4,3-a]pyrimidine], for which the “hERG IonWorks” value in data set [1] was determined as 26 µM. Further, the IC50 at human mGluR5d was determined as 0.037 µM. Besides, the Kp in data set [2] was found to be 0.005. In data set [3], the microsomal CLint at 1 μmol/L was below 12 µL/min/mg.
With `Clc1cccc(-c2nc(CN3CCCn4c(-c5cccnc5)nnc43)no2)c1` [Example 35.2, 8-{[5-(3-chlorophenyl)-1,2,4-oxadiazol-3-yl]methyl}-3-pyridin-3-yl-5,6,7,8-tetrahydro[1,2,4]triazolo[4,3-a]pyrimidine], at human mGluR5d, the IC50 is 0.052 µM. The Kp in data set [2] is 0.05.
As to `Clc1cccc(-c2nc(CN3CCCn4c(-c5cncnc5)nnc43)no2)c1` [Example 35.17, 8-[5-(3-Chloro-phenyl)-[1,2,4]oxadiazol-3-ylmethyl]-3-pyrimidin-5-yl-5,6,7,8-tetrahydro-[1,2,4]triazolo[4,3-a]pyrimidine], in data set [1], the “hERG IonWorks” value is 22 µM. Moreover, the IC50 on human mGluR5d stood at 0.044 µM. Moreover, the Kp in data set [2] came to 0.11. For the same compound, the microsomal CLint at 1 μmol/L in data set [3] was 14 µL/min/mg.
In the case of `C[C@H](c1cc(-c2cccc(Cl)c2)on1)N1CCCn2c(-c3cn[nH]c(=O)c3)nnc21` [Example 59.3, 5-(8-{1-[5-(3-Chloro-phenyl)-isoxazol-3-yl]-ethyl}-5,6,7,8-tetrahydro-[1,2,4]triazolo[4,3-a]pyrimidin-3-yl)-2H-pyridazin-3-one], the “hERG IonWorks” value in data set [1] turned out to be 15 µM. For the same compound, at human mGluR5d, the IC50 worked out at 0.034 µM. Moreover, the microsomal CLint at 1 μmol/L in data set [3] was below 12 µL/min/mg.
